Bridge positions count the residues as written; N and C are the ends. Square brackets hold non-standard residues; d marks the D form. Peptide text beside a SMILES is read from it. * marks the point of attachment. ξ: configuration not given here. Phe(4-COOH) = N[C@@H](Cc1ccc(C(=O)O)cc1)C(=O)O; Bip = N[C@@H](Cc1ccc(-c2ccccc2)cc1)C(=O)O; Phe(3-Me) = Cc1cccc(C[C@H](N)C(=O)O)c1; Val(3-OH) = CC(C)(O)[C@H](N)C(=O)O; aIle = CC[C@@H](C)[C@H](N)C(=O)O; 4Pal = N[C@@H](Cc1ccncc1)C(=O)O; Cha = N[C@@H](CC1CCCCC1)C(=O)O; Ile(3ξ) = CCC(C)[C@H](N)C(=O)O; Thr(3ξ) = CC(O)[C@H](N)C(=O)O; Ahp(2) = CCCCC[C@H](N)C(=O)O; Carboxymethyl = O=C(O)C*; NMeA = CN[C@@H](C)C(=O)O; Aze = O=C(O)[C@@H]1CCN1; Dab = NCC[C@H](N)C(=O)O; Dap = NC[C@H](N)C(=O)O
molecular target: T1, PE-labeled human PD-L1-Ig binding to Jurkat cell line over-expressing human PD-1 (Jurkat-PD-1) (Homo sapiens, UniProt Q15116); assay: Jurkat-PD-1 Cell Binding High-Content Screening Assay (CBA): Method 1; conditions: Jurkat-hPD-1 cells, PE-labeled PD-L1-Ig 20 nM final; read-out: Jurkat HPDL1 PD1 IC50 (uM) (Method 1)
T1 construct: expressed in transfected cells; host or cells: Jurkat
T1 sequence (Q15116 25-288): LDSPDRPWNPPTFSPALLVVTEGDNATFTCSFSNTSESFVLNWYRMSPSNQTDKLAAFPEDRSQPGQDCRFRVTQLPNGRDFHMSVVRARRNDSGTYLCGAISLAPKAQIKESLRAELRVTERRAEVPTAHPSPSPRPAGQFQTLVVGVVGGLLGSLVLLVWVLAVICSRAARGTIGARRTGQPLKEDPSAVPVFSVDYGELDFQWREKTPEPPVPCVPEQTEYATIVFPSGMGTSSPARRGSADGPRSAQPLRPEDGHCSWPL

Row | SMILES | IC50 [µM]
1 | CC(C)C[C@@H]1NC(=O)[C@H](CCN)NC(=O)[C@@H](CC(C)C)NC(=O)[C@@H]2CCN2C(=O)[C@H](C(C)C)NC(=O)[C@H](Cc2ccc(-c3ccccc3)cc2)NC(=O)[C@H](C(C)C)NC(=O)[C@H](Cc2c[nH]c3ccccc23)NC(=O)[C@H](CC(=O)O)NC(=O)[C@H](Cc2ccc(O)cc2)NC(=O)[C@H](CC(N)=O)NC(=O)CSC[C@@H](C(=O)N[C@@H](C)C(N)=O)NC(=O)[C@H]([C@@H](C)O)NC(=O)[C@H](C(C)C)NC1=O [Compound 1297] ({CH2CO}-NYDWV[Bip]V[Aze][dL][Dab]LVTCA-NH2; thioether N-14) | 0.32
2 | COc1ccc(C[C@@H]2NC(=O)[C@H](Cc3ccccc3)NC(=O)CSC[C@@H](C(=O)N[C@@H](C)C(N)=O)NC(=O)[C@H]([C@@H](C)O)NC(=O)[C@H](C(C)C)NC(=O)[C@H](CC(C)C)NC(=O)[C@H](CCCNC(=N)N)NC(=O)[C@@H](CC(C)C)NC(=O)[C@H](C)N(C)C(=O)[C@H](CCCNC(=N)N)NC(=O)[C@H](Cc3ccc(-c4ccccc4)cc3)NC(=O)[C@H](C(C)C)NC(=O)[C@H](Cc3c[nH]c4ccccc34)NC(=O)[C@H](CC(=O)O)NC2=O)cc1 [Compound 1091] ({CH2CO}-FY(Me)DWV[Bip]R[NMeA][dL]RLVTCA-NH2; thioether N-14) | 0.09
3 | CCC(C)[C@@H]1NC(=O)[C@H](Cc2ccc(-c3ccccc3)cc2)NC(=O)[C@H](C(C)C)NC(=O)[C@H](Cc2c[nH]c3ccccc23)NC(=O)[C@H](CC(=O)O)NC(=O)[C@H](Cc2ccc(O)cc2)NC(=O)[C@H](Cc2ccncc2)NC(=O)CSC[C@@H](C(=O)N[C@@H](CC(=O)O)C(=O)N[C@@H](CCN)C(=O)O)NC(=O)[C@H](C(C)O)NC(=O)[C@H](C(C)C)NC(=O)[C@H](CC2CCCCC2)NC(=O)[C@H](CC(N)=O)NC(=O)[C@@H](CC(C)C)NC(=O)[C@H](C)N(C)C1=O (stereo partly drawn) [Compound 2001] ({CH2CO}-[4Pal]YDWV[Bip][Ile(3ξ)][NMeA][dL]N[Cha]V[Thr(3ξ)]CD[Dab]-OH; thioether N-14) | 0.11
4 | Cc1cccc(C[C@@H]2NC(=O)[C@H](CC(=O)O)NC(=O)[C@H](Cc3ccc(OCC(=O)O)cc3)NC(=O)[C@H](Cc3ccncc3)NC(=O)CSC[C@@H](C(=O)N[C@@H](CCN)C(N)=O)NC(=O)[C@H](CCC(=O)O)NC(=O)[C@H](C(C)(C)O)NC(=O)[C@H](CC3CCCCC3)NC(=O)[C@H](CCN)NC(=O)[C@@H](CC(C)C)NC(=O)[C@H](C)N(C)C(=O)[C@H](Cc3ccc(OCC(=O)O)cc3)NC(=O)[C@H](Cc3ccc(-c4ccccc4)cc3)NC(=O)[C@H](Cc3ccc(OCC(=O)O)cc3)NC2=O)c1 [Compound 2188] ({CH2CO}-[4Pal]Y(Carboxymethyl)D[Phe(3-Me)]Y(Carboxymethyl)[Bip]Y(Carboxymethyl)[NMeA][dL][Dab][Cha][Val(3-OH)]EC[Dab]-NH2; thioether N-14) | 0.02
5 | CCCCC[C@@H]1NC(=O)[C@H](Cc2ccc(-c3ccccc3)cc2)NC(=O)[C@H](C(C)C)NC(=O)[C@H](Cc2c[nH]c3ccccc23)NC(=O)[C@H](CC(=O)O)NC(=O)[C@H](Cc2ccc(O)cc2)NC(=O)[C@H](CN)NC(=O)CSC[C@@H](C(=O)N[C@@H](C)C(N)=O)NC(=O)[C@H](C(C)O)NC(=O)[C@H](C(C)C)NC(=O)[C@H](CC(C)C)NC(=O)[C@H](CCN)NC(=O)[C@@H](CC(C)C)NC(=O)[C@H](C)N(C)C1=O (stereo partly drawn) [Compound 2082] ({CH2CO}-[Dap]YDWV[Bip][Ahp(2)][NMeA][dL][Dab]LV[Thr(3ξ)]CA-NH2; thioether N-14) | 0.07
6 | CC[C@@H](C)[C@@H]1NC(=O)[C@H](Cc2ccc(-c3ccccc3)cc2)NC(=O)[C@H](CC(C)C)NC(=O)[C@H](Cc2cccc(C)c2)NC(=O)[C@H](CC(=O)O)NC(=O)[C@H](Cc2ccc(C(=O)O)cc2)NC(=O)[C@H](Cc2ccc(OCC(=O)O)cc2)NC(=O)CSC[C@@H](C(N)=O)NC(=O)[C@H](CO)NC(=O)[C@H](C(C)C)NC(=O)[C@H](CC(C)C)NC(=O)[C@H](CC(N)=O)NC(=O)[C@@H](CC(C)C)NC(=O)[C@H](C)N(C)C1=O [Compound 1639] ({CH2CO}-Y(Carboxymethyl)[Phe(4-COOH)]D[Phe(3-Me)]L[Bip][aIle][NMeA][dL]NLVSC-NH2; thioether N-14) | 0.06
